Like-named read-outs stand apart in the source and are kept apart here.
Columns and labels:
[1] = target: T1, human CYP2A6 (Homo sapiens (Human), UniProt P11509)
[2] = target: T1, human CYP2A6; assay: CYP2A6 mediated coumarin 7-hydroxylation inhibition; details: for IC50: read-out: CYP2A6 IC50; for Ki: apparent Ki from IC50 by Cheng-Prusoff; for fold decrease of CYP2A6 inhibitor potency: relative to compound 39a

T1 sequence (P11509 whole entry): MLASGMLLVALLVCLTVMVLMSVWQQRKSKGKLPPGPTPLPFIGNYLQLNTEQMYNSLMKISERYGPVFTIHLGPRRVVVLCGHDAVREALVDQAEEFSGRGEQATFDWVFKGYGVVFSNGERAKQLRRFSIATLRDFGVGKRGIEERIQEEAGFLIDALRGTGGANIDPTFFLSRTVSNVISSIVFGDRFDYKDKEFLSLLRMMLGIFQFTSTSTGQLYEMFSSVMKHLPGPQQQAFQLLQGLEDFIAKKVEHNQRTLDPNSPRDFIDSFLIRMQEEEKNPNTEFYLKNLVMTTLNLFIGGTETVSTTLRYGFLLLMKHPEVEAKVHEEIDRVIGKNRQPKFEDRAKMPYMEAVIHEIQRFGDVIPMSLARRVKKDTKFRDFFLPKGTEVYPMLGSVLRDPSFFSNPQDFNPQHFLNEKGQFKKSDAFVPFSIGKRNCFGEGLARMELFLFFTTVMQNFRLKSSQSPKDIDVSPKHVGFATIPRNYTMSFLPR

Compound: c1cncc(-n2ccnc2)c1 [Compound 63, 3-(1H-imidazol-1-yl)pyridine]
- Ki [1]: 0.62 ± 0.13 µM

Compound: C1=CC[C@@H](c2cccnc2)NC1 [Compound 50]
- IC50 ([1]; human, pH 7.5): 23 ± 3.6 µM
- fold decrease of CYP2A6 inhibitor potency ([1]; human, pH 7.5): 10 fold

Compound: c1cncc(-n2cnnn2)c1 [Compound 88]
- IC50 ([2]; coumarin 7-hydroxylation): 408 ± 88 µM

Compound: Cc1cccc(-c2cccnc2)n1 [Compound 67]
- IC50 ([2]; coumarin 7-hydroxylation): 58.9 ± 11.9 µM

Compound: CN1CCCC[C@H]1c1cccnc1 [Compound 94, N-Methylanabasine, reference compound]
- IC50 ([2]; coumarin 7-hydroxylation): ≥ 400 µM

Compound: C(#Cc1ccsc1)c1cccnc1 [Compound 68]
- IC50 ([2]; coumarin 7-hydroxylation): 61.2 ± 11.5 µM

Compound: c1cncc(-c2ccc(CN(Cc3ccc(-c4cccnc4)o3)Cc3ccc(-c4cccnc4)o3)o2)c1 [Compound 39c, tris((5-(pyridin-3-yl)furan-2-yl)methyl)amine]
- Ki ([1]; human, pH 7.5): 2.8 ± 0.8 µM
- fold decrease of CYP2A6 inhibitor potency ([1]; human, pH 7.5): 70 fold

Compound: CNCc1ccc(-c2cccnc2)s1 [Compound 40, N-Methyl(5-(pyridin-3-yl)thiophen-2-yl)methanamine]
- Ki ([2]; coumarin 7-hydroxylation): 0.18 ± 0.02 µM

Compound: CN(C)CC#Cc1cccnc1 [Compound 76]
- IC50 ([1]; human, pH 7.5): 136 ± 47 µM

Compound: COc1ccc(-c2ccsc2)cn1 [Compound 18, 2-Methoxy-5-(thiophen-3-yl)pyridine]
- Ki ([2]; coumarin 7-hydroxylation): 9.7 ± 2.1 µM

Compound: c1cncc(-c2nnn[nH]2)c1 [Compound 64, 3-(1H-tetrazol-5-yl)pyridine]
- Ki [1]: 64.8 ± 11.3 µM

Compound: c1ccc(-c2cccnc2)nc1 [Compound 66, 2,3′-Bipyridyl, reference compound]
- CYP2A6 inhibition (in words) ([1]; human, pH 7.5): significant CYP2A6 inhibition
- IC50 ([1]; human, pH 7.5): 46.1 ± 7.1 µM

Compound: Cc1cncc(-c2sccc2C)c1 [Compound 71]
- IC50 ([2]; coumarin 7-hydroxylation): 66 ± 9 µM

Compound: Cc1cncc(-c2ccsc2)c1 [TD-IV-049 29]
- IC50 ([2]; coumarin 7-hydroxylation): 1 ± 0.29 µM

Compound: C#Cc1cncc(-c2ccsc2)c1 [Compound 43]
- IC50 [1]: 12.9 ± 2.3 µM

Compound: Cc1cnc(N)c(-c2ccsc2)c1 [Compound 60]
- IC50 ([2]; coumarin 7-hydroxylation): 33.2 ± 41.7 µM

Compound: NCC#Cc1ccc(Cl)nc1 [TD-VIII-031]
- IC50 ([2]; coumarin 7-hydroxylation): ≤ 1.68 µM

Compound: Cc1ccsc1-c1cncc(Br)c1 [Compound 37]
- IC50 ([1]; human, pH 7.5): 8.9 ± 1.13 µM

Compound: c1cncc(-c2ccc(CNCc3ccc(-c4cccnc4)o3)o2)c1 [Compound 39b, bis((5-(pyridin-3-yl)furan-2-yl)methyl)amine]
- Ki ([2]; coumarin 7-hydroxylation): 1.5 ± 0.3 µM
- fold decrease of CYP2A6 inhibitor potency [2]: 38 fold

Compound: c1cncc(-c2nnn[nH]2)c1 [Compound 85]
- IC50 ([1]; human, pH 7.5): 389 ± 68 µM

Compound: c1cncc(-c2ccnc(-c3cccnc3)c2)c1 [Compound 95, Nicotelline, reference compound]
- IC50 [2]: ≥ 400 µM

Compound: NCc1ccc(-c2ccccc2)s1 [TD-VIII-089]
- IC50 ([2]; coumarin 7-hydroxylation): 1.16 ± 0.11 µM

Compound: Cc1cscc1-c1cncc(CO)c1 [Compound 70]
- IC50 ([2]; coumarin 7-hydroxylation): 65 ± 7 µM

Compound: C1=CC[C@@H](c2cccnc2)NC1 [Compound 50, Anatabine, reference compound]
- CYP2A6 inhibition (in words) ([1]; human, pH 7.5): significant CYP2A6 inhibition

Compound: c1cncc([C@@H]2CCCCN2)c1 [Compound 59, Anabasine, reference compound]
- CYP2A6 inhibition (in words) ([1]; human, pH 7.5): significant CYP2A6 inhibition

Compound: CNCc1ccc(-c2cccnc2)o1 [Compound 41, N-Methyl(5-(pyridin-3-yl)furan-2-yl)methanamine]
- Ki ([2]; coumarin 7-hydroxylation): 0.28 ± 0.06 µM
- fold decrease of CYP2A6 inhibitor potency [2]: 7 fold

Compound: c1cc(-c2cncc(-c3ccsc3)c2)cs1 [Compound 55]
- IC50 ([2]; coumarin 7-hydroxylation): 26.7 ± 4.6 µM

Compound: c1cncc(-n2ccnc2)c1 [SD-I-21]
- IC50 ([1]; human, pH 7.5): 3.74 ± 0.78 µM

Compound: CNCC#Cc1cccnc1 [Compound 26]
- IC50 [1]: 5.36 ± 0.61 µM

Compound: Cc1cnc(N)c(-c2sccc2C)c1 [Compound 42]
- IC50 ([2]; coumarin 7-hydroxylation): 11.5 ± 2.1 µM

Compound: Cc1cccnc1-c1cccnc1 [Compound 82]
- IC50 ([2]; coumarin 7-hydroxylation): 262 ± 69 µM

Compound: NCc1ccc(-c2cccnc2)s1 [Compound 1]
- CYP2A6 inhibition (in words) ([2]; coumarin 7-hydroxylation): significant inhibition

Compound: c1cncc(-c2cnc3ccccc3c2)c1 [Compound 83]
- IC50 ([1]; human, pH 7.5): 267 ± 245 µM

Compound: CN1C(=O)CC[C@H]1c1cccnc1 [Compound 91, Cotinine, reference compound]
- IC50 ([1]; human, pH 7.5): ≥ 400 µM
